The source of these data is patent US9856254B2, “Alkoxy substituted imidazoquinolines” (3M INNOVATIVE PROPERTIES COMPANY, priority 2003, dated 2018).

As usually defined, the melting point is the temperature, or range, at which the solid turns liquid.

As to `CCCn1c(COCC)nc2c(N)nc3cc(OC4CCN(C(=O)NC(C)C)CC4)ccc3c21` [Example 417, 4-{[4-Amino-2-(ethoxymethyl)-1-propyl-1H-imidazo[4,5-c]quinolin-7-yl]oxy}-N-isopropylpiperidine-1-carboxamide], the melting point is 163 to 164.5 °C.
The result for `CCc1nc2c(N)nc3cc(OCCNC(=O)OC(C)(C)C)ccc3c2n1CC1CCOCC1` [Example 551, tert-Butyl 2-{[4-amino-2-ethyl-1-(tetrahydro-2H-pyran-4-ylmethyl)-1H-imidazo[4,5-c]quinolin-7-yl]oxy}ethylcarbamate] reads 200 to 201 °C.
The result for `CCc1nc2c(N)nc3cc(OCC(=O)N4CCOCC4)ccc3c2n1CC1CCOCC1` [Example 553, 2-Ethyl-7-(2-morpholin-4-yl-2-oxoethoxy)-1-(tetrahydro-2H-pyran-4-ylmethyl)-1H-imidazo[4,5-c]quinolin-4-amine] reads 245 to 247 °C; that for `CCCn1c(COC)nc2c(N)nc3ccc(OCCCN4CCOCC4)cc3c21` [Example 554, 2-Methoxymethyl-8-(3-morpholin-4-ylpropoxy)-1-propyl-1H-imidazo[4,5-c]quinolin-4-amine], 193 to 196 °C; that for `CCCn1c(COC)nc2c(N)nc3ccc(OCCCOC(=O)N4CCOCC4)cc3c21` [Example 555, 3-{[4-Amino-2-(methoxymethyl)-1-propyl-1H-imidazo[4,5-c]quinolin-8-yl]oxy}propyl morpholine-4-carboxylate], 173 to 174 °C.
Compound `CCCn1c(COC)nc2c(N)nc3ccc(OCC(=O)N4CCSCC4)cc3c21` [Example 556, 2-(Methoxymethyl)-8-(2-oxo-2-thiomorpholin-4-ylethoxy)-1-propyl-1H-imidazo[4,5-c]quinolin-4-amine] registered a melting point of 214 to 216 °C.
The result for `CCCn1c(COC)nc2c(N)nc3ccc(OCC(=O)N4CCOCC4)cc3c21` [Example 557, 2-(Methoxymethyl)-8-(2-morpholin-4-yl-2-oxoethoxy)-1-propyl-1H-imidazo[4,5-c]quinolin-4-amine] reads 201 to 204 °C; that for `CCCn1c(COC)nc2c(N)nc3ccc(OCC4CCCN(C)C4)cc3c21` (stereo not drawn) [Example 558, 2-Methoxymethyl-8-(1-methylpiperidin-3-ylmethoxy)-1-propyl-1H-imidazo[4,5-c]quinolin-4-amine], 194 to 196 °C.
With `CCCn1c(COC)nc2c(N)nc3ccc(OCCN4CCCCC4)cc3c21` [Example 559, 2-Methoxymethyl-8-(2-piperidin-1-ylethoxy)-1-propyl-1H-imidazo[4,5-c]quinolin-4-amine], the melting point lay in the range of 160 to 162 °C.
The result for `CCCn1c(COCC)nc2c(N)nc3cc(OC4CCN(C(C)=O)CC4)ccc3c21` [Example 560, 7-[(1-Acetylpiperidin-4-yl)oxy]-2-(ethoxymethyl)-1-propyl-1H-imidazo[4,5-c]quinolin-4-amine] reads 178 to 179.5 °C; that for `CCCn1c(COCC)nc2c(N)nc3cc(OC4CCN(S(C)(=O)=O)CC4)ccc3c21` [Example 561, 2-(Ethoxymethyl)-7-{[1-(methylsulfonyl)piperidin-4-yl]oxy}-1-propyl-1H-imidazo[4,5-c]quinolin-4-amine], 215 to 217 °C.
As for `CCOCc1nc2c(N)nc3cc(OC4CCN(C(=O)OC(C)(C)C)CC4)ccc3c2n1CC(C)(C)O` [Example 563, tert-Butyl 4-{[4-amino-2-(ethoxymethyl)-1-(2-hydroxy-2-methylpropyl)-1H-imidazo[4,5-c]quinolin-7-yl]oxy}piperidine-1-carboxylate], the melting point is 214 to 215 °C (dec.).
The result for `COCCc1nc2c(N)nc3cc(OCC4OCCO4)ccc3c2n1CC(C)(C)O` [Example 564, 1-[4-Amino-7-(1,3-dioxolan-2-ylmethoxy)-2-(2-methoxyethyl)-1H-imidazo[4,5-c]quinolin-1-yl]-2-methylpropan-2-ol] reads 131 to 136 °C; that for `CCCn1c(COCC)nc2c(N)nc3ccc(OCC(=O)N4CCS(=O)(=O)CC4)cc3c21` [Example 565, 8-[2-(1,1-Dioxidothiomorpholin-4-yl)-2-oxoethoxy]-2-(ethoxymethyl)-1-propyl-1H-imidazo[4,5-c]quinolin-4-amine], 223 to 225 °C.
The result for `CCCn1c(COCC)nc2c(N)nc3ccc(OCC(=O)N4CCOCC4)cc3c21` [Example 566, 2-(Ethoxymethyl)-8-(2-morpholin-4-yl-2-oxoethoxy)-1-propyl-1H-imidazo[4,5-c]quinolin-4-amine] reads 196 to 197 °C.
As for `CCCn1c(COC)nc2c(N)nc3ccc(OCCC4CCCN4C)cc3c21` (stereo not drawn) [Example 567, 2-(Methoxymethyl)-8-[2-(1-methylpyrrolidin-2-yl)ethoxy]-1-propyl-1H-imidazo[4,5-c]quinolin-4-amine], the melting point lay in the range of 155 to 157 °C.
The result for `CCc1nc2c(N)nc3cc(OCCN4CCOCC4)ccc3c2n1CC1CCOCC1` [Example 568, 2-Ethyl-7-(2-morpholin-4-ylethoxy)-1-(tetrahydro-2H-pyran-4-ylmethyl)-1H-imidazo[4,5-c]quinolin-4-amine] reads 230 to 232 °C.
The result for `CCCn1c(COCC)nc2c(N)nc3ccc(OCC4CCCO4)cc3c21` (stereo not drawn) [Example 569, 2-(Ethoxymethyl)-1-propyl-8-(tetrahydrofuran-2-ylmethoxy)-1H-imidazo[4,5-c]quinolin-4-amine] reads 178 to 179 °C; that for `CCCn1c(COCC)nc2c(N)nc3ccc(OC(=O)N4CCOCC4)cc3c21` [Example 570, 4-Amino-2-(ethoxymethyl)-1-propyl-1H-imidazo[4,5-c]quinolin-8-yl morpholine-4-carboxylate], 193 to 196 °C; that for `CCCn1c(COCC)nc2c(N)nc3ccc(OCCN4CCCCCC4)cc3c21` [Example 571, 8-(2-Azepan-1-ylethoxy)-2-(ethoxymethyl)-1-propyl-1H-imidazo[4,5-c]quinolin-4-amine], 146 to 148 °C.
The result for `CCOCc1nc2c(N)nc3cc(OCC(=O)N4CCOCC4)ccc3c2n1CC(C)(C)O` [Example 646, 1-[4-Amino-2-(ethoxymethyl)-7-(2-morpholin-4-yl-2-oxoethoxy)-1H-imidazo[4,5-c]quinolin-1-yl]-2-methylpropan-2-ol] reads 209 to 211 °C; that for `CCOCc1nc2c(N)nc3cc(OCCN4CCOCC4)ccc3c2n1CC(C)(C)O` [Example 647, 1-[4-Amino-2-(ethoxymethyl)-7-(2-morpholin-4-ylethoxy)-1H-imidazo[4,5-c]quinolin-1-yl]-2-methylpropan-2-ol], 161 to 163 °C; that for `CCCn1c(COCC)nc2c(N)nc3cc(OCC(=O)N4CCOCC4)ccc3c21` [Example 648, 2-(Ethoxymethyl)-7-(2-morpholin-4-yl-2-oxoethoxy)-1-propyl-1H-imidazo[4,5-c]quinolin-4-amine], 213 °C.
`CCCn1c(COCC)nc2c(N)nc3cc(OCCN4CCOCC4)ccc3c21` [Example 649, 2-(Ethoxymethyl)-7-(2-morpholin-4-ylethoxy)-1-propyl-1H-imidazo[4,5-c]quinolin-4-amine]: the melting point was 191 to 192 °C.
The result for `CCc1nc2c(N)nc3cc(OCCN)ccc3c2n1CC1CCOCC1` [Example 650, 7-(2-Aminoethoxy)-2-ethyl-1-(tetrahydro-2H-pyran-4-ylmethyl)-1H-imidazo[4,5-c]quinolin-4-amine] reads 238 °C (dec.); that for `CCc1nc2c(N)nc3cc(OCCNC(=O)NC(C)C)ccc3c2n1CC1CCOCC1` [Example 651, N-(2-{[4-Amino-2-ethyl-1-(tetrahydro-2H-pyran-4-ylmethyl)-1H-imidazo[4,5-c]quinolin-7-yl]oxy}ethyl)-N′-isopropylurea], 223 to 225 °C; that for `CCc1nc2c(N)nc3cc(OCCNC(C)=O)ccc3c2n1CC1CCOCC1` [Example 652, N-(2-{[4-Amino-2-ethyl-1-(tetrahydro-2H-pyran-4-ylmethyl)-1H-imidazo[4,5-c]quinolin-7-yl]oxy}ethyl)acetamide], 165 to 167 °C.
As to `CCOCc1nc2c(N)nc3cc(OCCN)ccc3c2n1CC(C)(C)O` [Example 654, 1-[4-Amino-7-(2-aminoethoxy)-2-(ethoxymethyl)-1H-imidazo[4,5-c]quinolin-1-yl]-2-methylpropan-2-ol], the melting point is 163 to 165 °C.
The result for `CCOCc1nc2c(N)nc3cc(OC4CCN(C(C)=O)CC4)ccc3c2n1CC(C)(C)O` [Example 656, 1-[7-[(1-Acetylpiperidin-4-yl)oxy]-4-amino-2-(ethoxymethyl)-1H-imidazo[4,5-c]quinolin-1-yl]-2-methylpropan-2-ol] reads 162 to 164 °C; that for `CCCn1c(COC)nc2c(N)nc3ccc(OCCCN4CCN(c5ccccn5)CC4)cc3c21` [Example 657, 2-(Methoxymethyl)-1-propyl-8-[3-(4-pyridin-2-ylpiperazin-1-yl)propoxy]-1H-imidazo[4,5-c]quinolin-4-amine], 196 to 197 °C.
